Data: US9839642B2, “Beta-tetrazolyl-propionic acids as metallo-beta-lactamase inhibitors” (priority 2014, dated 2017)

Legend:
[1] = test system: Klebsiella pneumoniae expressing VIM-1 (IHMA599644); test: Antibiotic potentiation activity: synergistic concentration (MITC95) with imipenem, growth by OD600; type: cell-based; details: 95% inhibition of bacterial growth, strain IHMA599644
How it was run: (§1)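 Strains grown overnight at 35° C, resuspended in saline, diluted 1:100 into 1.1×CAMHB; imipenem at 1 μg/ml or 4 μg/ml with test compound 200 μM to 0.195 μM. Incubated 22 hours to 24 hours at 35° C, OD600 read; MITC95 is lowest compound concentration inhibiting 95% of growth.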

[2] = test system: Escherichia coli expressing NDM-1 (CLB30016); test: as above; type: cell-based; details: 95% inhibition of bacterial growth, strain CLB30016
How it was run: as §1

[3] = test system: Escherichia coli expressing NDM-1 (CLB30005); test: as above; type: cell-based; details: 95% inhibition of bacterial growth, strain CLB30005
How it was run: as §1

[4] = test system: Serratia marcescens expressing IMP-1 (CL5741); test: as above; type: cell-based; details: 95% inhibition of bacterial growth, strain CL5741
How it was run: as §1

NDM-1 = NDM-1 (Klebsiella pneumoniae, UniProt C7C422); test: Enzyme activity: determination of IC50, fluorescence assay with CCF2-FA substrate; type: biochemical; details: enzyme 1 pM, CCF2-FA 1.25 μM, 2 hours at 25° C.; read-out: NDM1 IC50
How it was run: (§2)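 Read-out: fluorescence, ex 405 nm / em 460 nm, after 2 h at 25° C with 1.25 μM CCF2-FA. Buffer 100 mM KH2PO4 pH 7, 0.005% Tween-20, 10 μM ZnSO4; enzyme 1 pM NDM-1, 2 pM IMP-1, 30 pM VIM-1. IC50 by 4-parameter fit.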

VIM-1 = VIM-1 (Pseudomonas aeruginosa, UniProt A0A0F7KYQ8); test: as above; type: biochemical; details: enzyme 30 pM, CCF2-FA 1.25 μM, 2 hours at 25° C.; read-out: VIM1 IC50
How it was run: as §2

IMP-1 = IMP-1 (Serratia marcescens, UniProt P52699); test: as above; type: biochemical; details: enzyme 2 pM, CCF2-FA 1.25 μM, 2 hours at 25° C.; read-out: IMP1 IC50
How it was run: as §2

Chain of NDM-1 (C7C422 29-270, looked up, species assumed): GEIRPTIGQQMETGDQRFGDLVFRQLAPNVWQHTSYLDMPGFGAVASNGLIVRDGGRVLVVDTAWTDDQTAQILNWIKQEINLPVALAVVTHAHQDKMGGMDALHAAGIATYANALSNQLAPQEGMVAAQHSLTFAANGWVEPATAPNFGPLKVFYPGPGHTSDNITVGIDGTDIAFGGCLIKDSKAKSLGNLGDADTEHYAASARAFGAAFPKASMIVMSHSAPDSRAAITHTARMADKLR
Chain of IMP-1 (P52699 19-246, looked up, species assumed): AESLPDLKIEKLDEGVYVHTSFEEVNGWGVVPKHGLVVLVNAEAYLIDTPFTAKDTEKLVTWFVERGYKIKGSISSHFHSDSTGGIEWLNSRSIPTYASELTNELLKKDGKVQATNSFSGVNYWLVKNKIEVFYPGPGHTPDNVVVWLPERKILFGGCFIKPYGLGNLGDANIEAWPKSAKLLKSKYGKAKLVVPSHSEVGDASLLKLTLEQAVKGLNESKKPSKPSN

Structure (SMILES) | VIM1 KP599644 MITC95 [1] [µM] | NDM1 EC30016 MITC95 [2] [µM] | NDM1 EC30005 MITC95 [3] [µM] | IMP1 SM5741 MITC95 [4] [µM] | IC50 (NDM-1) [nM] | IC50 (VIM-1) [nM] | IC50 (IMP-1) [nM]
CCC[C@H](C(=O)O)[C@H](Cc1ccc(-c2ccc(N3CCNCC3)nc2)cc1)c1nn[nH]n1 [Example 199, (2S)-2-[(1S)-2-[4-(6-piperazin-1-ylpyridin-3-yl)phenyl]-1-(2H-tetrazol-5-yl)ethyl]pentanoic acid] | 31 | 9.4 | 4.7 | 17 | 48 | 7.4 | 110
CCC[C@H](C(=O)O)[C@H](Cc1ccc(-c2ccc(CN)cc2)cc1)c1nn[nH]n1 [Example 209, (2S)-2-[(1S)-2-[4′-(aminomethyl)biphenyl-4-yl]-1-(2H-tetrazol-5-yl)ethyl]pentanoic acid] | 12.5 | 6.2 | 2.3 | 4.3 | 84 | 14 | 110
